The text below walks through data of ChEMBL document CHEMBL1201862, “PubChem BioAssay data set” (2004).

Molecules are shown by their SMILES.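 Five compound concentrations were applied to cells in 96-well plates for 48 hours; endpoints were derived by simple linear interpolation of the resulting dose-response curve. At the GI50, growth is halved.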 The source made the active and inactive calls. Rule as the data show it: active = GI50 up to about 1.1 µM and inactive = higher.

What all share (test): NCI-60 cell line screen, 48 h
The test system of experiment [1] is CCRF-CEM.
Experiment [2] relates to SNB-19.
Experiment [3] deals with SF-295.
Experiment [4] has as its system SNB-75.
The test system of experiment [5] is U-251.
Experiment [6] concerns RXF 393.
Experiment [7] relates to DU-145.
Experiment [8] concerns KM12.
The subject of experiment [9] is PC-3.
Experiment [10] deals with OVCAR-3.
In experiment [11] the test system is RPMI-8226.
For experiment [12], the system named is SR.
Experiment [13] deals with MDA-N.
The subject of experiment [14] is SK-OV-3.
In experiment [15] the test system is SF-539.
For experiment [16], the system named is HT-29.
For experiment [17], the system named is A498.
For experiment [18], the system named is TK-10.
Experiment [19] has as its system OVCAR-8.
In experiment [20] the test system is OVCAR-5.

In the case of `c1ccc([P+](CCCCCCCC[P+](c2ccccc2)(c2ccccc2)c2ccccc2)(c2ccccc2)c2ccccc2)cc1`, the GI50 in experiment [1] is 9.23 µM (inactive); in [2] it was 0.396 µM (active); in experiment [3] it was 6.53 µM (inactive); in [4], 0.307 µM (active); in [5] it was 0.22 µM (active); in [6], 31.6 µM (inactive). Also, the GI50 is 30 µM (inactive) in experiment [7]; 1.52 µM (inactive) in experiment [8]; 1.19 µM (inactive) in [9]; 3.83 µM (inactive) in [10]; 1.87 µM (inactive) in experiment [11]; 23 µM (inactive) in [12]. Moreover, the GI50 is 6.89 µM (inactive) in [13]; 17.3 µM (inactive) in experiment [14]; 2.37 µM (inactive) in [15]; 2.04 µM (inactive) in [16]; > 31.8 µM (inactive) in experiment [17]; 18 µM (inactive) in [18]. Further, the values for the GI50 in experiment [19] and in experiment [20] were 4.4 µM (inactive) and 11.2 µM (inactive), respectively.

Turning to `COc1cc2c3c(n(C)c(=O)c2cc1OC)-c1cc2c(cc1C3=O)OCO2`, the GI50 in [1] is 0.237 µM (active); in experiment [2], 27.1 µM (inactive); in experiment [3], 0.871 µM (active); in experiment [4], 3.73 µM (inactive); in [5] it was 9.38 µM (inactive); in [6], 30.3 µM (inactive). For the same compound, the GI50 was 12 µM (inactive) in experiment [7]; > 100 µM (inactive) in experiment [8]; > 70 µM (inactive) in [9]; 53.5 µM (inactive) in [10]; 71.3 µM (inactive) in [11]; 0.105 µM (active) in experiment [12]. Besides, the GI50 is 41.6 µM (inactive) in experiment [13]; 11.3 µM (inactive) in [14]; 8.75 µM (inactive) in experiment [15]; 46.5 µM (inactive) in experiment [16]; 46.2 µM (inactive) in [17]; > 100 µM (inactive) in [18]. The GI50 in experiment [19] is 38.4 µM (inactive); in [20] it was 54 µM (inactive).

Turning to `CCOC(=O)c1c(N2CCCC2)[nH]c(=O)c(C(c2ccc(OC)cc2)c2c(O)c(C(=O)OCC)c(N3CCCC3)[nH]c2=O)c1O`, the GI50 in experiment [1] is > 100 µM (inactive); in [2], > 100 µM (inactive); in [3], 25.7 µM (inactive); in experiment [4], 21.3 µM (inactive); in experiment [5], 48.9 µM (inactive); in [6], 57.3 µM (inactive). Moreover, the GI50 is > 100 µM (inactive) in [7]; > 100 µM (inactive) in experiment [8]; > 100 µM (inactive) in experiment [9]; > 100 µM (inactive) in experiment [10]; > 100 µM (inactive) in experiment [11]; 88.9 µM (inactive) in experiment [12]. Besides, the GI50 is > 100 µM (inactive) in experiment [13]; > 100 µM (inactive) in [14]; > 100 µM (inactive) in [15]; > 100 µM (inactive) in experiment [17]; 42.8 µM (inactive) in experiment [18]; 86.1 µM (inactive) in experiment [19]. The GI50 in experiment [20] was 52.7 µM (inactive).

For the compound `CCC(=O)Nc1ccc(NS(=O)(=O)c2ccc(Cl)cc2)cc1`, the GI50 is > 100 µM (inactive) in [1]; > 100 µM (inactive) in experiment [2]; 45.4 µM (inactive) in [3]; > 100 µM (inactive) in experiment [4]; > 100 µM (inactive) in [6]; > 100 µM (inactive) in [7]. The GI50 in experiment [8] was > 100 µM (inactive); in experiment [9], > 100 µM (inactive); in [10], 43.5 µM (inactive); in [11], 17.7 µM (inactive); in experiment [12] it was 89.3 µM (inactive); in [13], > 100 µM (inactive). The GI50 in [14], in experiment [15], in experiment [16], in experiment [17], in experiment [19] and in [20] was > 100 µM (inactive) in each case.
